According to the supplement of paper PMC4862054:
One block for each compound: values may come before it.

Key:
Details in all cases: 72 h
Hs578T [1] = test system: Hs578T
Summary of the method: (§1)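 Rows with a drug sensitivity score of zero were dropped, and EC50 was taken from the fitted percent-inhibition dose-response curve, censored at the highest concentration. Data were normalised on each plate to vehicle and a positive kill control and checked by Z'-factor. The assay seeded breast cancer cell lines in 20 µl onto 384-well plates pre-loaded with compound in 5 µl medium for 72 h, then added 2.5 µl CellTiter-Blue for 2 h at 37 °C and read fluorescence at 560/590 nm.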

MDA-MB-231 [2] = test system: MDA-MB-231
Summary of the method: as §1

BT-549 [3] = test system: BT-549
Summary of the method: as §1

BT-474 [4] = test system: BT-474
Summary of the method: as §1

MFM-223 [5] = test system: MFM-223
Summary of the method: as §1

HCC1143 [6] = test system: HCC1143
Summary of the method: as §1

MDA-MB-468 [7] = test system: MDA-MB-468
Summary of the method: as §1

CAL-120 [8] = test system: CAL-120
Summary of the method: as §1

MDA-MB-436 [9] = test system: MDA-MB-436
Summary of the method: as §1

HCC1599 [10] = test system: HCC1599
Summary of the method: as §1

SK-BR-3 [11] = test system: SK-BR-3
Summary of the method: as §1

HCC1937 [12] = test system: HCC1937
Summary of the method: as §1

Hs578T [13] = test system: Hs578T; remark: listed apart in the source
Description: (§2)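 Drug sensitivity and resistance testing (DSRT) of breast cancer cell lines in 384-well plates, 5 concentrations in 10-fold dilutions over a compound-specific 10,000-fold range. After 72 h, cytotoxicity was read by CellTox Green fluorescence and viability by CellTiter-Glo luminescence (multiplexed), normalised to DMSO and benzethonium chloride controls. EC50 is the inflection point of the fitted dose-response curve (bottom asymptote free, so it can be relative for partial curves) and is censored at the highest tested concentration. Rows with DSS 0 (no meaningful response) were excluded.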

MDA-MB-231 [14] = test system: MDA-MB-231; remark: listed apart in the source
Description: as §2

CAL-85-1 [15] = test system: CAL-85-1
Description: as §2

MFM-223 [16] = test system: MFM-223; remark: listed apart in the source
Description: as §2

CAL-51 [17] = test system: CAL-51
Description: as §2

MDA-MB-468 [18] = test system: MDA-MB-468; remark: listed apart in the source
Description: as §2

CAL-148 [19] = test system: CAL-148
Description: as §2

CAL-120 [20] = test system: CAL-120; remark: listed apart in the source
Description: as §2

HCC1599 [21] = test system: HCC1599; remark: listed apart in the source
Description: as §2

DU-4475 [22] = test system: DU-4475
Description: as §2

HDQ-P1 [23] = test system: HDQ-P1
Description: as §2

HCC1937 [24] = test system: HCC1937; remark: listed apart in the source
Description: as §2

CAL-85-1 [25] = test system: CAL-85-1; remark: listed apart in the source
Summary of the method: as §1

CAL-51 [26] = test system: CAL-51; remark: listed apart in the source
Summary of the method: as §1

CAL-148 [27] = test system: CAL-148; remark: listed apart in the source
Summary of the method: as §1

DU-4475 [28] = test system: DU-4475; remark: listed apart in the source
Summary of the method: as §1

HDQ-P1 [29] = test system: HDQ-P1; remark: listed apart in the source
Summary of the method: as §1

MDA-MB-453 [30] = test system: MDA-MB-453
Summary of the method: as §1

Hs578T [31] = test system: Hs578T; remark: listed apart in the source
Summary of the method: (§3)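 The plates used were 384-well plates holding compound at 5 concentrations in 10-fold steps across a compound-specific 10,000-fold range, into which breast cancer cell lines were seeded in 20 µl suspension. Following 72 h incubation, CellTox Green fluorescence was read at 485/520 nm, and CellTiter-Glo luminescence was read after 10 min at room temperature. Normalisation on each plate used 0.1 % DMSO and a positive kill control. Dose-response curves gave the EC50, which was censored at the top concentration.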

MDA-MB-231 [32] = test system: MDA-MB-231; remark: listed apart in the source
Summary of the method: as §3

BT-549 [33] = test system: BT-549; remark: listed apart in the source
Summary of the method: as §3

CAL-85-1 [34] = test system: CAL-85-1; remark: listed apart in the source
Summary of the method: as §3

BT-474 [35] = test system: BT-474; remark: listed apart in the source
Summary of the method: as §3

MFM-223 [36] = test system: MFM-223; remark: listed apart in the source
Summary of the method: as §3

CAL-51 [37] = test system: CAL-51; remark: listed apart in the source
Summary of the method: as §3

HCC1143 [38] = test system: HCC1143; remark: listed apart in the source
Summary of the method: as §3

MDA-MB-468 [39] = test system: MDA-MB-468; remark: listed apart in the source
Summary of the method: as §3

CAL-148 [40] = test system: CAL-148; remark: listed apart in the source
Summary of the method: as §3

CAL-120 [41] = test system: CAL-120; remark: listed apart in the source
Summary of the method: as §3

MDA-MB-436 [42] = test system: MDA-MB-436; remark: listed apart in the source
Summary of the method: as §3

HCC1599 [43] = test system: HCC1599; remark: listed apart in the source
Summary of the method: as §3

DU-4475 [44] = test system: DU-4475; remark: listed apart in the source
Summary of the method: as §3

SK-BR-3 [45] = test system: SK-BR-3; remark: listed apart in the source
Summary of the method: as §3

HDQ-P1 [46] = test system: HDQ-P1; remark: listed apart in the source
Summary of the method: as §3

HCC1937 [47] = test system: HCC1937; remark: listed apart in the source
Summary of the method: as §3

MDA-MB-453 [48] = test system: MDA-MB-453; remark: listed apart in the source
Description: as §2

EC50, CellTiter-Blue viability (MDA-MB-231 [2]): 2180 nM | EC50, CellTiter-Blue viability (BT-549 [3]): 1510 nM | EC50, CellTiter-Blue viability (BT-474 [4]): 5940 nM | EC50, CellTiter-Blue viability (HCC1143 [6]): 829 nM | EC50, CellTiter-Blue viability (MDA-MB-468 [7]): 1080 nM | EC50, CellTiter-Blue viability (MDA-MB-436 [9]): 1180 nM | EC50, CellTiter-Blue viability (HCC1599 [10]): 1740 nM | EC50, CellTiter-Blue viability (SK-BR-3 [11]): 91.7 nM | EC50, CellTiter-Blue viability (HCC1937 [12]): 103 nM | EC50, CellTiter-Blue viability (MDA-MB-453 [30]): 1840 nM | EC50, CellTiter-Glo (MDA-MB-231 [32]): 1910 nM | EC50, CellTiter-Glo (BT-549 [33]): 359 nM | EC50, CellTiter-Glo (BT-474 [35]): 888 nM | EC50, CellTiter-Glo (HCC1143 [38]): 842 nM | EC50, CellTiter-Glo (MDA-MB-468 [39]): 614 nM | EC50, CellTiter-Glo (MDA-MB-436 [42]): 204 nM | EC50, CellTiter-Glo (HCC1599 [43]): 176 nM | EC50, CellTiter-Glo (SK-BR-3 [45]): 138 nM | EC50, CellTiter-Glo (HCC1937 [47]): 2710 nM
Structure (SMILES): COc1cc([C@@H]2c3cc4c(cc3[C@@H](O[C@@H]3O[C@@H]5CO[C@@H](c6cccs6)O[C@H]5[C@H](O)[C@H]3O)[C@H]3COC(=O)[C@H]23)OCO4)cc(OC)c1O [Teniposide]
EC50, CellTiter-Blue viability (Hs578T [1]): 3830 nM | EC50, CellTiter-Blue viability (MFM-223 [5]): 1850 nM | EC50, CellTiter-Blue viability (CAL-120 [8]): 999 nM | EC50, CellTox Green (Hs578T [13]): 4000 nM | EC50, CellTox Green (MDA-MB-231 [14]): 1190 nM | EC50, CellTox Green (CAL-85-1 [15]): 2390 nM | EC50, CellTox Green (MFM-223 [16]): 835 nM | EC50, CellTox Green (CAL-51 [17]): 879 nM | EC50, CellTox Green (MDA-MB-468 [18]): 4760 nM | EC50, CellTox Green (CAL-148 [19]): 10.7 nM | EC50, CellTox Green (CAL-120 [20]): 4090 nM | EC50, CellTox Green (HCC1599 [21]): 350 nM | EC50, CellTox Green (DU-4475 [22]): 1620 nM | EC50, CellTox Green (HDQ-P1 [23]): 2380 nM | EC50, CellTox Green (HCC1937 [24]): 100 nM | EC50, CellTiter-Blue viability (CAL-85-1 [25]): 1450 nM | EC50, CellTiter-Blue viability (CAL-51 [26]): 75.8 nM | EC50, CellTiter-Blue viability (CAL-148 [27]): 220 nM | EC50, CellTiter-Blue viability (DU-4475 [28]): 37.1 nM | EC50, CellTiter-Blue viability (HDQ-P1 [29]): 1700 nM | EC50, CellTiter-Glo (Hs578T [31]): 2060 nM | EC50, CellTiter-Glo (CAL-85-1 [34]): 1180 nM | EC50, CellTiter-Glo (MFM-223 [36]): 1740 nM | EC50, CellTiter-Glo (CAL-51 [37]): 666 nM | EC50, CellTiter-Glo (CAL-148 [40]): 393 nM | EC50, CellTiter-Glo (CAL-120 [41]): 2690 nM | EC50, CellTiter-Glo (DU-4475 [44]): 184 nM | EC50, CellTiter-Glo (HDQ-P1 [46]): 5210 nM

EC50, CellTiter-Blue viability (MDA-MB-231 [2]): 96 nM | EC50, CellTiter-Blue viability (BT-549 [3]): 1800 nM | EC50, CellTiter-Blue viability (BT-474 [4]): 1970 nM | EC50, CellTiter-Blue viability (MDA-MB-468 [7]): 40.4 nM | EC50, CellTiter-Blue viability (MDA-MB-436 [9]): 90.1 nM | EC50, CellTiter-Blue viability (HCC1599 [10]): > 10000 nM | EC50, CellTiter-Blue viability (SK-BR-3 [11]): 3470 nM | EC50, CellTiter-Blue viability (HCC1937 [12]): 737 nM | EC50, CellTiter-Blue viability (MDA-MB-453 [30]): 6490 nM | EC50, CellTiter-Glo (BT-549 [33]): 604 nM | EC50, CellTiter-Glo (BT-474 [35]): > 10000 nM | EC50, CellTiter-Glo (MDA-MB-468 [39]): 65.2 nM | EC50, CellTiter-Glo (HCC1937 [47]): 3500 nM
Structure (SMILES): Nc1ncn([C@H]2C[C@H](O)[C@@H](CO)O2)c(=O)n1 [Decitabine]
EC50, CellTox Green (CAL-51 [17]): 28.9 nM | EC50, CellTox Green (MDA-MB-468 [18]): > 10000 nM | EC50, CellTox Green (MDA-MB-453 [48]): > 10000 nM | EC50, CellTiter-Blue viability (CAL-51 [26]): 2380 nM | EC50, CellTiter-Blue viability (CAL-148 [27]): 6600 nM | EC50, CellTiter-Blue viability (DU-4475 [28]): 6760 nM | EC50, CellTiter-Glo (Hs578T [31]): > 10000 nM | EC50, CellTiter-Glo (CAL-51 [37]): 1160 nM | EC50, CellTiter-Glo (HDQ-P1 [46]): > 10000 nM
